According to ChEMBL document CHEMBL2150935, “Synthesis, biological evaluation and chemometric analysis of indazole derivatives. 1,2-Disubstituted 5-nitroindazolinones, new prototypes of antichagasic drug” (Eur J Med Chem, 2012):

Assays:
Trypanosoma cruzi [1] = assay: Growth inhibition of epimastigote form of Trypanosoma cruzi CL-B5 at 16 uM after 72 hrs by lacZ reporter gene assay; assay type: functional; details: CL-B5, 72 h, read-out: GI
Trypanosoma cruzi [2] = assay: Growth inhibition of epimastigote form of Trypanosoma cruzi CL-B5 at 32 uM after 72 hrs by lacZ reporter gene assay; assay type: functional; details: CL-B5, 72 h, read-out: GI
Trypanosoma cruzi [3] = assay: Growth inhibition of epimastigote form of Trypanosoma cruzi CL-B5 at 0.625 uM after 72 hrs by lacZ reporter gene assay; assay type: functional; details: CL-B5, 72 h, read-out: GI
[4] = Growth inhibition of mouse J774 cells at 1.25 uM after 24 hrs by resazurin reduction assay; assay type: cell-based; details: read-out: GI
Trypanosoma cruzi [5] = assay: Growth inhibition of epimastigote form of Trypanosoma cruzi CL-B5 at 8 uM after 72 hrs by lacZ reporter gene assay; assay type: functional; details: CL-B5, 72 h, read-out: GI
Trypanosoma cruzi [6] = assay: Growth inhibition of epimastigote form of Trypanosoma cruzi CL-B5 at 256 uM after 72 hrs by lacZ reporter gene assay; assay type: functional; details: CL-B5, 72 h, read-out: GI
[7] = Growth inhibition of mouse J774 cells at 256 uM after 24 hrs by resazurin reduction assay; assay type: cell-based; details: read-out: GI
Trypanosoma cruzi [8] = assay: Growth inhibition of epimastigote form of Trypanosoma cruzi CL-B5 at 1.25 uM after 72 hrs by lacZ reporter gene assay; assay type: functional; details: CL-B5, 72 h, read-out: GI
Trypanosoma cruzi [9] = assay: Growth inhibition of epimastigote form of Trypanosoma cruzi CL-B5 at 64 uM after 72 hrs by lacZ reporter gene assay; assay type: functional; details: CL-B5, 72 h, read-out: GI
[10] = Growth inhibition of mouse J774 cells at 5 uM after 24 hrs by resazurin reduction assay; assay type: cell-based; details: read-out: GI
[11] = Growth inhibition of mouse J774 cells at 2.5 uM after 24 hrs by resazurin reduction assay; assay type: cell-based; details: read-out: GI
Trypanosoma cruzi [12] = assay: Growth inhibition of epimastigote form of Trypanosoma cruzi CL-B5 at 128 uM after 72 hrs by lacZ reporter gene assay; assay type: functional; details: CL-B5, 72 h, read-out: GI
[13] = Growth inhibition of mouse J774 cells at 32 uM after 24 hrs by resazurin reduction assay; assay type: cell-based; details: read-out: GI
[14] = Growth inhibition of mouse J774 cells at 0.625 uM after 24 hrs by resazurin reduction assay; assay type: cell-based; details: read-out: GI
Trypanosoma cruzi [15] = assay: Growth inhibition of epimastigote form of Trypanosoma cruzi CL-B5 at 5 uM after 72 hrs by lacZ reporter gene assay; assay type: functional; details: CL-B5, 72 h, read-out: GI
Trypanosoma cruzi [16] = assay: Growth inhibition of epimastigote form of Trypanosoma cruzi CL-B5 after 72 hrs by lacZ reporter gene assay; assay type: functional, organism-based; details: CL-B5, 72 h
[17] = Growth inhibition of mouse J774 cells at 16 uM after 24 hrs by resazurin reduction assay; assay type: cell-based; details: read-out: GI
[18] = Growth inhibition of mouse J774 cells at 128 uM after 24 hrs by resazurin reduction assay; assay type: cell-based; details: read-out: GI
Trypanosoma cruzi [19] = assay: Growth inhibition of epimastigote form of Trypanosoma cruzi CL-B5 at 2.5 uM after 72 hrs by lacZ reporter gene assay; assay type: functional; details: CL-B5, 72 h, read-out: GI
[20] = Growth inhibition of mouse J774 cells at 64 uM after 24 hrs by resazurin reduction assay; assay type: cell-based; details: read-out: GI
[21] = Growth inhibition of mouse J774 cells at 8 uM after 24 hrs by resazurin reduction assay; assay type: cell-based; details: read-out: GI
[22] = Growth inhibition of mouse J774 cells at 2 uM after 24 hrs by resazurin reduction assay; assay type: cell-based; details: read-out: GI
Trypanosoma cruzi [23] = assay: Growth inhibition of epimastigote form of Trypanosoma cruzi CL-B5 at 1 uM after 72 hrs by lacZ reporter gene assay; assay type: functional; details: CL-B5, 72 h, read-out: GI
Trypanosoma cruzi [24] = assay: Growth inhibition of epimastigote form of Trypanosoma cruzi CL-B5 at 4 uM after 72 hrs by lacZ reporter gene assay; assay type: functional; details: CL-B5, 72 h, read-out: GI
[25] = Growth inhibition of mouse J774 cells at 1 uM after 24 hrs by resazurin reduction assay; assay type: cell-based; details: read-out: GI
[26] = Growth inhibition of mouse J774 cells at 4 uM after 24 hrs by resazurin reduction assay; assay type: cell-based; details: read-out: GI
Trypanosoma cruzi [27] = assay: Growth inhibition of epimastigote form of Trypanosoma cruzi CL-B5 at 2 uM after 72 hrs by lacZ reporter gene assay; assay type: functional; details: CL-B5, 72 h, read-out: GI

SMILES	inhibition of growth at 16 µM (Trypanosoma cruzi [1]) [%]	inhibition of growth at 32 µM (Trypanosoma cruzi [2]) [%]	inhibition of growth at 0.625 µM (Trypanosoma cruzi [3]) [%]	inhibition at 24 h, 1.25 µM [4] [%]	inhibition of growth at 8 µM (Trypanosoma cruzi [5]) [%]	inhibition of growth at 256 µM (Trypanosoma cruzi [6]) [%]	inhibition at 24 h, 256 µM [7] [%]	inhibition of growth at 1.25 µM (Trypanosoma cruzi [8]) [%]	inhibition of growth at 64 µM (Trypanosoma cruzi [9]) [%]	inhibition at 24 h, 5 µM [10] [%]	inhibition at 24 h, 2.5 µM [11] [%]	inhibition of growth at 128 µM (Trypanosoma cruzi [12]) [%]	inhibition at 24 h, 32 µM [13] [%]	inhibition at 24 h, 0.625 µM [14] [%]	inhibition of growth at 5 µM (Trypanosoma cruzi [15]) [%]	IC50 (Trypanosoma cruzi [16]) [nM]	inhibition at 24 h, 16 µM [17] [%]	inhibition at 24 h, 128 µM [18] [%]	inhibition at 24 h, 64 µM [20] [%]	inhibition at 24 h, 8 µM [21] [%]	other results
CCCCn1c2ccc([N+](=O)[O-])cc2c(=O)n1Cc1ccccc1	100	100	49.7	5.37	93	84	81.6	55.9	82.8	2.36	1.92	88.3	27.1	0.14	61.7	1170	7.92	67.5	33.3	7.65	inhibition of growth at 2.5 µM (Trypanosoma cruzi [19]): 58.2%
CCCn1c2ccc([N+](=O)[O-])cc2c(=O)n1Cc1ccccc1	100	100	56.2	0.14	100	94.8	0	59.5	92.7	0.64	0.85	92.8	0	4.18	61.5	930	0	0	0	0	inhibition of growth at 2.5 µM (Trypanosoma cruzi [19]): 59.8%
CC(C)n1c2ccc([N+](=O)[O-])cc2c(=O)n1Cc1ccccc1	97.6	100			80.3	90.4	0		87.6			88.3	0			2390	0	0	14.5	10.3	inhibition at 24 h, 2 µM [22]: 8.76%; inhibition of growth at 1 µM (Trypanosoma cruzi [23]): 28%; inhibition of growth at 4 µM (Trypanosoma cruzi [24]): 4.11%; inhibition at 24 h, 1 µM [25]: 5.87%; inhibition at 24 h, 4 µM [26]: 65.2%; inhibition of growth at 2 µM (Trypanosoma cruzi [27]): 37.4%
